Literature values in US10058616B2, “Pharmaceutical compositions to reduce complications of ocular steroid” (TAIWAN LIPOSOME COMPANY, LTD., priority 2012, dated 2018).
Like-named read-outs stand apart in the source and are kept apart here.

Experiments:
[1] = test system: patients

CC1(C)O[C@@H]2C[C@H]3[C@@H]4CCC5=CC(=O)C=C[C@]5(C)[C@@]4(F)[C@@H](O)C[C@]3(C)[C@]2(C(=O)CO)O1 [triamcinolone acetonide]
progression of cataract, patients ([1]; after intravitreal steroid injection): 22.72%
incidence of increased IOP after intravitreal steroid injection ([1]; at 3 months): 75%
incidence of increased IOP after intravitreal steroid injection ([1]; at 6 months): 47.05%
incidence of increased IOP after intravitreal steroid injection ([1]; at one month): 57.69%

dexamethasone sodium phosphate [Non-associated DSP]
half-life in the vitreous humor: about 3.5 hours
